Source: publication PMC7316778 (Nature Communications, 2020)
“And” between values parts separate entries of the source, which are not always exact repeats. Identical values can stand only once. Like-named read-outs stand apart in the source and are kept apart here.

Assays:
BTK = BTK (Homo sapiens, UniProt Q06187); experiment: SelectScreen kinase assay
Experimental: (§1) Selectivity profiling assays were performed by the Invitrogen SelectScreen™ Services. […] The concentration of ATP was selected to be equal to the KM, unless indicated otherwise.

CDK11/cyclin C = CDK11/cyclin C (Homo sapiens, UniProt Q9BWU1); experiment: SelectScreen kinase assay; conditions: for Inhibition at 1 µM (%): CDK11/cyclin C, LanthaScreen Binding
Experimental: as §1

CDK17/cyclin Y = CDK17/cyclin Y (Homo sapiens, UniProt Q00537); experiment: SelectScreen kinase assay
Experimental: as §1

ERBB2 (HER2) = ERBB2 (HER2) (Homo sapiens, UniProt P04626); experiment: SelectScreen kinase assay; conditions: for Inhibition at 1 µM (%): ERBB2 (HER2), ZLYTE, ATP Km app
Experimental: as §1

FES (FPS) = FES (FPS) (Homo sapiens, UniProt P07332); experiment: SelectScreen kinase assay
Experimental: as §1

GSG2 (Haspin) = GSG2 (Haspin) (Homo sapiens, UniProt Q8TF76); experiment: SelectScreen kinase assay
Experimental: as §1

MAP2K2 (MEK2) = MAP2K2 (MEK2) (Homo sapiens, UniProt P36507); experiment: SelectScreen kinase assay
Experimental: as §1

MAP2K3 (MEK3) = target: T1, MAP2K3 (MEK3) (Homo sapiens, UniProt P46734); experiment: SelectScreen kinase assay
T1 sequence (P46734 1-347): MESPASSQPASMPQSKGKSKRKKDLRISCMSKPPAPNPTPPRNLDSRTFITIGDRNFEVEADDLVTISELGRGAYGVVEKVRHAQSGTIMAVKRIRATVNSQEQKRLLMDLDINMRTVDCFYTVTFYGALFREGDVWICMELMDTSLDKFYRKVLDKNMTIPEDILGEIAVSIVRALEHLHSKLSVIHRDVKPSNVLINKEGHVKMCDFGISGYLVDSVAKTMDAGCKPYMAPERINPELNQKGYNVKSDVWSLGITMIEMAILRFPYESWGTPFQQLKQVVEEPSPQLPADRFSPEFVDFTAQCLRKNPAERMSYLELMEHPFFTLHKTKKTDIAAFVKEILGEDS
Experimental: as §1

MAP3K19 (YSK4) = MAP3K19 (YSK4) (Homo sapiens, UniProt Q56UN5); experiment: SelectScreen kinase assay
Experimental: as §1

MAPK7 (ERK5) = MAPK7 (ERK5) (Homo sapiens, UniProt Q13164); experiment: SelectScreen kinase assay
Experimental: as §1

NEK7 = NEK7 (Homo sapiens, UniProt Q8TDX7); experiment: SelectScreen kinase assay
Experimental: as §1

NIM1K = NIM1K (Homo sapiens, UniProt Q8IY84); experiment: SelectScreen kinase assay
Experimental: as §1

PIK3C2G (PI3K-C2 gamma) = PIK3C2G (PI3K-C2 gamma) (Homo sapiens, UniProt O75747); experiment: SelectScreen kinase assay
Experimental: as §1

PRKCQ (PKC theta) = PRKCQ (PKC theta) (Homo sapiens, UniProt Q04759); experiment: SelectScreen kinase assay; conditions: 1 h, 1 μM WEL028, 1 h preincubation
Experimental: as §1

RET = RET (Homo sapiens, UniProt P07949); experiment: SelectScreen kinase assay
Experimental: as §1

RPS6KA5 (MSK1) = RPS6KA5 (MSK1) (Homo sapiens, UniProt O75582); experiment: SelectScreen kinase assay
Experimental: as §1

SBK1 = SBK1 (Homo sapiens, UniProt Q52WX2); experiment: SelectScreen kinase assay
Experimental: as §1

SLK = SLK (Homo sapiens, UniProt Q9H2G2); experiment: SelectScreen kinase assay
Experimental: as §1

STK4 (MST1) = STK4 (MST1) (Homo sapiens, UniProt Q13043); experiment: SelectScreen kinase assay
Experimental: as §1

SYK = SYK (Homo sapiens, UniProt P43405); experiment: SelectScreen kinase assay
Experimental: as §1

TXK = TXK (Homo sapiens, UniProt P42681); experiment: SelectScreen kinase assay
Experimental: as §1

FES^S700C = FES^S700C (Homo sapiens, UniProt P07332, S700C); experiment: In vitro TR-FRET kinase assay; type: biochemical; set-up: human FES cDNA encoding residues 448–822 or human FER cDNA encoding residues 448–820 was amplified by PCR; made in house; host or cells: E. coli BL21(DE3), co-expressing YopH phosphatase; conditions: IC50 on FES^WT divided by IC50 on FES^S700C
[1] = 1 h, 1 μM WEL028, 1 h preincubation
[2] = read-out: Inhibition at 1 µM (%), 1 µM, ZLYTE, ATP Km app
[3] = 1 µM, ZLYTE, ATP Km app, listed as WEL028, 1 µM

Chain of SBK1 (Q52WX2 whole entry): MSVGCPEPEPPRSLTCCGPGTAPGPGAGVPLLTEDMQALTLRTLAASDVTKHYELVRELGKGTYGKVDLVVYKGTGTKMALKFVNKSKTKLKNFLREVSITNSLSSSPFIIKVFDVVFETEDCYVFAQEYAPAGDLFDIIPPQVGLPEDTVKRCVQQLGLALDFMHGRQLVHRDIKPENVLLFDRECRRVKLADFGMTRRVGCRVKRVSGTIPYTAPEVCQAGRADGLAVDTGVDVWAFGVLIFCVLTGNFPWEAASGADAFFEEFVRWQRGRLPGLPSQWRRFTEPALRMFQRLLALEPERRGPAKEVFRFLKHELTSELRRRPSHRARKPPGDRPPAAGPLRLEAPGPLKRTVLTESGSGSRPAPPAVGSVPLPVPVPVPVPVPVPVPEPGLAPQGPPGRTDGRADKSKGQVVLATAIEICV
Chain of ERBB2 (HER2) (P04626 23-1255): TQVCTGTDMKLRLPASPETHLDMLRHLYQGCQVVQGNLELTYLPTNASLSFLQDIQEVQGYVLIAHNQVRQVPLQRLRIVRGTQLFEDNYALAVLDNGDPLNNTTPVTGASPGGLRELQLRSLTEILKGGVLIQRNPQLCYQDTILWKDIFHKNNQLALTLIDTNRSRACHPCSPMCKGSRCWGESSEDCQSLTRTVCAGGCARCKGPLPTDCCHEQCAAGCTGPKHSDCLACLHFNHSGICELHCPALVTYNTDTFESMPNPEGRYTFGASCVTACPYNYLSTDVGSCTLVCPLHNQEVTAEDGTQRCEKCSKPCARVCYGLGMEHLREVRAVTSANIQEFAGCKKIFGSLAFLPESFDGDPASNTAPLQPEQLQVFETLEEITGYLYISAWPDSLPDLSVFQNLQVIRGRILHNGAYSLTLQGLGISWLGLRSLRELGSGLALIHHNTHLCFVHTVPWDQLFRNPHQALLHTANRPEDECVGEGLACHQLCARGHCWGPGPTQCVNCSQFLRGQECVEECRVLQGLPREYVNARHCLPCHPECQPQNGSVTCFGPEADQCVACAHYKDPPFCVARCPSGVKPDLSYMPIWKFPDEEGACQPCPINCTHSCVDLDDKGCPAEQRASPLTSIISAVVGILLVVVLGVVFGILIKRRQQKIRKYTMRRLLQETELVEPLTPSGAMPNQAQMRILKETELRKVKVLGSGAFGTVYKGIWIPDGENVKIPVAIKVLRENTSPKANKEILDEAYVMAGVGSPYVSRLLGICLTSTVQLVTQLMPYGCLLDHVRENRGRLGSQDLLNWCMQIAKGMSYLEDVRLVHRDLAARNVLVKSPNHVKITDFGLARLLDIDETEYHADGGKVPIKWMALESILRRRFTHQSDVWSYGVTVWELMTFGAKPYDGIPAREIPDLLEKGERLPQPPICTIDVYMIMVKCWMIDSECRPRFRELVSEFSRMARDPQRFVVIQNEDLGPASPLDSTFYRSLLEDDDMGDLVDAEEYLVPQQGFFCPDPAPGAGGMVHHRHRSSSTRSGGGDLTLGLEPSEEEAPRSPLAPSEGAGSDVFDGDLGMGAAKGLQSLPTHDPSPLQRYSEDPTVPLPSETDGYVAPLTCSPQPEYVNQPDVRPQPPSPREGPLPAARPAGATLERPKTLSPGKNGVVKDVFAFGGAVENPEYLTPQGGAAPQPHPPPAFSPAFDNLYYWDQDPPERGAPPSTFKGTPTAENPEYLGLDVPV
Chain of MAPK7 (ERK5) (Q13164 whole entry): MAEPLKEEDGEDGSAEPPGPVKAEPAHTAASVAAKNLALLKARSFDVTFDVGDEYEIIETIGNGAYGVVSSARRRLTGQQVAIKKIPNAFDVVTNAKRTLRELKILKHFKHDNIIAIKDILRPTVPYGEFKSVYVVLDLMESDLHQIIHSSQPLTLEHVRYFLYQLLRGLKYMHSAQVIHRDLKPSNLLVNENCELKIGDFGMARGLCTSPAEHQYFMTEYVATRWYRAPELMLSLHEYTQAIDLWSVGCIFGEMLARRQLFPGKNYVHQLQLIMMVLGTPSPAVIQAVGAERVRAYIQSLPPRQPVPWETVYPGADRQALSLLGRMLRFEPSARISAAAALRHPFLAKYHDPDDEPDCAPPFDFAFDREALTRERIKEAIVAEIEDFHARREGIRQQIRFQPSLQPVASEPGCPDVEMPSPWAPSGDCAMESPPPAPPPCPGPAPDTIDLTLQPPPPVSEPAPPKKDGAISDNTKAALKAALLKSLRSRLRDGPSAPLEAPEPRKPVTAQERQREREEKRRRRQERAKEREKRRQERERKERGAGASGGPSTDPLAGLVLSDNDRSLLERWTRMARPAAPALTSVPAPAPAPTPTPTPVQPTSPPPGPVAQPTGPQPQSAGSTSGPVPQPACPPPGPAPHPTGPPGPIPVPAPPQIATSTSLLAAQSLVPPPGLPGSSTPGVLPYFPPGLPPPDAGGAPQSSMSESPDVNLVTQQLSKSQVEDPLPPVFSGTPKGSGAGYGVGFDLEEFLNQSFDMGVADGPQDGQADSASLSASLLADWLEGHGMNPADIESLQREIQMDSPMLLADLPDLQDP
Chain of MAP2K2 (MEK2) (P36507 whole entry, species assumed): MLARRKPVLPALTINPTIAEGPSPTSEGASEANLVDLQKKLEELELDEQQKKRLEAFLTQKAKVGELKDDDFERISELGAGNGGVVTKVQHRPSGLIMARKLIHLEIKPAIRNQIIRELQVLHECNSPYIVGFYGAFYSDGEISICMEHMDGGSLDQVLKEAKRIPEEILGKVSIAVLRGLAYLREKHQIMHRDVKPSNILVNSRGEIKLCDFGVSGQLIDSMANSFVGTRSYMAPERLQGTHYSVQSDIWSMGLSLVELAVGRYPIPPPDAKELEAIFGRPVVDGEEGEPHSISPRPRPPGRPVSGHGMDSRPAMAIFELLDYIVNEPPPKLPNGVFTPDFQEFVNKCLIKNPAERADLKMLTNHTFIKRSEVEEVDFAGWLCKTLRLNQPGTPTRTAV
Chain of SLK (Q9H2G2 whole entry): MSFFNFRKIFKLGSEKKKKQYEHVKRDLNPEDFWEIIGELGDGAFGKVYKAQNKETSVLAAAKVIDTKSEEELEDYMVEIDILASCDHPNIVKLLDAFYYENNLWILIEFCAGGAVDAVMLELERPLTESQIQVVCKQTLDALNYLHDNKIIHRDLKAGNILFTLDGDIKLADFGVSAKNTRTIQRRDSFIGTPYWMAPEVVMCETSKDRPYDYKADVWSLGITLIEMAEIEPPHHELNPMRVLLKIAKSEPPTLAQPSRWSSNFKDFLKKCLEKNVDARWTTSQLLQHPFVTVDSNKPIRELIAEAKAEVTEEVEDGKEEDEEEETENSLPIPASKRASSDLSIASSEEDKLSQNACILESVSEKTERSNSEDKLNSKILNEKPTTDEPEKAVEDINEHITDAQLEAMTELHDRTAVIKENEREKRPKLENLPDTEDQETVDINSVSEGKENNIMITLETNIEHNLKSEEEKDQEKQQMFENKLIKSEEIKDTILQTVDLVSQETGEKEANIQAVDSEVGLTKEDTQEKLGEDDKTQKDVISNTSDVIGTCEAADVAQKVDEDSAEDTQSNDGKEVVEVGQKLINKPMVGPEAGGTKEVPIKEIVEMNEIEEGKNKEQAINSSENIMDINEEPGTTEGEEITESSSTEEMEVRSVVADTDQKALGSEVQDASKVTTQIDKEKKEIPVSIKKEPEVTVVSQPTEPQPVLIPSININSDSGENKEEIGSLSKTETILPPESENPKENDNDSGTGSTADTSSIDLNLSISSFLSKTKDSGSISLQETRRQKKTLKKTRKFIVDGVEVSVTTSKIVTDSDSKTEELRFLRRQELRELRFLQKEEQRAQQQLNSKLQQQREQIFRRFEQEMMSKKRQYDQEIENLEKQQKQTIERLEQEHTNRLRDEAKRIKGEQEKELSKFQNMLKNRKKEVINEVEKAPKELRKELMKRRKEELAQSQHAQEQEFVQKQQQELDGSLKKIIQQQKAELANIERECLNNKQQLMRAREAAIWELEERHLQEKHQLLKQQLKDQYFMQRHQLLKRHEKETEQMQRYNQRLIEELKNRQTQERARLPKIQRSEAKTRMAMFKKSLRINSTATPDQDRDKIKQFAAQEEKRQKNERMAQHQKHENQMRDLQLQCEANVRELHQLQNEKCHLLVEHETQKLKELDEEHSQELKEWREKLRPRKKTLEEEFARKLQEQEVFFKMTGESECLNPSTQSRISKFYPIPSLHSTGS
Chain of CDK11/cyclin C (Q9BWU1 whole entry): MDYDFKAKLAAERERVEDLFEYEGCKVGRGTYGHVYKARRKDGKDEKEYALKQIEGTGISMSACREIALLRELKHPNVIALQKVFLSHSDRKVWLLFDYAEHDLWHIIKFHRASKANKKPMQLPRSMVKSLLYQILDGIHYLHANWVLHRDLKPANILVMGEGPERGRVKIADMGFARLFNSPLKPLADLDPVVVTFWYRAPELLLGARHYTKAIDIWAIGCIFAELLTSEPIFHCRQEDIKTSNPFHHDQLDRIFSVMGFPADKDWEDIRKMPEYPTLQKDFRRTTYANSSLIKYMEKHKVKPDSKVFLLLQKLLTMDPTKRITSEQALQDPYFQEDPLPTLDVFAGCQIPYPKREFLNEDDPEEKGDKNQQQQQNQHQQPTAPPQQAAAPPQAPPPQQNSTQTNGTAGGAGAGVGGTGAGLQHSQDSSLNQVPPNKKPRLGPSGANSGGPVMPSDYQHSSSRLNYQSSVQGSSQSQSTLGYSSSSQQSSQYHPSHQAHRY
Chain of CDK11/cyclin C (P24863 whole entry partner): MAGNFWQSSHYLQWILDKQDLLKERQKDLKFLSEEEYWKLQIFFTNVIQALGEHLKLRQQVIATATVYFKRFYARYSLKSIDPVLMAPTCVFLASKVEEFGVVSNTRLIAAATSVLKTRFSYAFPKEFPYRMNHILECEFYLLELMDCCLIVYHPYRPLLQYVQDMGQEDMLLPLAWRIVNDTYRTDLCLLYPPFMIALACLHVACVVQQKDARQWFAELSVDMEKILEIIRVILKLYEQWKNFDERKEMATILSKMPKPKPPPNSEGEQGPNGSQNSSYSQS

## C#CCOc1ccc(Nc2ncc(Cl)c(Nc3ccccc3NC(=O)C=C)n2)c(OC)c1 [Compound 6]
BTK; 1 μM WEL028, 1 h preincubation
  Inhibition (%): 11%
BTK; BTK, 1 µM, ZLYTE, ATP Km app
  Inhibition at 1 µM (%): 17%
CDK11/cyclin C; 1 μM WEL028, 1 h preincubation
  Inhibition (%): 5%
CDK11/cyclin C
  Inhibition at 1 µM (%): 2%
CDK11/cyclin C; listed as WEL028, 1 µM
  Inhibition at 1 µM (%): 7%
CDK17/cyclin Y; [1]
  inhibition at 1 µM: 4%
CDK17/cyclin Y; read-out: Inhibition at 1 µM (%), CDK17/cyclin Y, 1 µM, ZLYTE, ATP Km app
  inhibition at 1 µM: 5%
ERBB2 (HER2); [1]
  inhibition at 1 µM: 2%
ERBB2 (HER2)
  Inhibition at 1 µM (%): -2%
ERBB2 (HER2); listed as WEL028, 1 µM
  Inhibition at 1 µM (%): 6%
FES (FPS); [1]
  inhibition at 1 µM: 15%
FES (FPS); FES (FPS), 1 µM, ZLYTE, ATP Km app, listed as WEL028, 1 µM
  Inhibition at 1 µM (%): 17%
FES (FPS); read-out: Inhibition at 1 µM (%), FES (FPS), 1 µM, ZLYTE, ATP Km app
  inhibition at 1 µM: 12%
GSG2 (Haspin); [1]
  inhibition at 1 µM: 6%
GSG2 (Haspin); GSG2 (Haspin), 1 µM, Adapta, ATP Km app
  Inhibition at 1 µM (%): 20%
MAP2K2 (MEK2)
  IC50: 251 nM
MAP2K2 (MEK2); [1]
  inhibition at 1 µM: 106%
MAP2K2 (MEK2); 1 h, log[inhibitor] (M) -5.00, ZLYTE, ATP 100
  inhibition at 10 µM: 104%
MAP2K2 (MEK2); 1 h, log[inhibitor] (M) -5.48, ZLYTE, ATP 100
  inhibition at 3.311 µM: 103%
MAP2K2 (MEK2); 1 h, log[inhibitor] (M) -5.95, ZLYTE, ATP 100
  inhibition at 1.122 µM: 99%
MAP2K2 (MEK2); 1 h, log[inhibitor] (M) -6.43, ZLYTE, ATP 100
  inhibition at 0.3715 µM: 68%
MAP2K2 (MEK2); 1 h, log[inhibitor] (M) -6.91, ZLYTE, ATP 100
  inhibition at 0.123 µM: 38%
MAP2K2 (MEK2); 1 h, log[inhibitor] (M) -7.39, ZLYTE, ATP 100
  inhibition at 0.04074 µM: 33%
MAP2K2 (MEK2); 1 h, log[inhibitor] (M) -7.86, ZLYTE, ATP 100
  inhibition at 0.0138 µM: 27%
MAP2K2 (MEK2); 1 h, log[inhibitor] (M) -8.82, ZLYTE, ATP 100
  inhibition at 0.001514 µM: 16%
MAP2K2 (MEK2); 1 h, log[inhibitor] (M) -9.31, ZLYTE, ATP 100
  inhibition at 0.0004898 µM: 10%
MAP2K2 (MEK2); 1 h, log[inhibitor] (M) -[…], ZLYTE, ATP 100
  inhibition at 0.004571 µM: 20%
MAP2K2 (MEK2); IC50 on that kinase divided by IC50 on FES^S700C
  Apparent fold selectivity: 54 fold
MAP2K2 (MEK2); read-out: Inhibition at 1 µM (%), MAP2K2 (MEK2), 1 µM, ZLYTE, ATP 100
  inhibition at 1 µM: 109%
MAP2K3 (MEK3); [1]
  inhibition at 1 µM: 46%
MAP2K3 (MEK3); MAP2K3 (MEK3), 1 µM, LanthaScreen Binding, listed as WEL028, 1 µM
  Inhibition at 1 µM (%): 53%
MAP2K3 (MEK3); read-out: Inhibition at 1 µM (%), MAP2K3 (MEK3), 1 µM, LanthaScreen Binding
  inhibition at 1 µM: 38%
MAP3K19 (YSK4); [1]
  inhibition at 1 µM: 0%
MAP3K19 (YSK4); MAP3K19 (YSK4), 1 µM, ZLYTE, ATP Km app, listed as WEL028, 1 µM
  Inhibition at 1 µM (%): -1% and 1%
MAPK7 (ERK5); [1]
  inhibition at 1 µM: 4%
MAPK7 (ERK5); MAPK7 (ERK5), 1 µM, ZLYTE, ATP Km app, listed as WEL028, 1 µM
  Inhibition at 1 µM (%): 3%
MAPK7 (ERK5); read-out: Inhibition at 1 µM (%), MAPK7 (ERK5), 1 µM, ZLYTE, ATP Km app
  inhibition at 1 µM: 4%
NEK7; [1]
  inhibition at 1 µM: -3%
NEK7; NEK7, 1 µM, ZLYTE, ATP Km app, listed as WEL028, 1 µM
  Inhibition at 1 µM (%): -2%
NIM1K; [1]
  inhibition at 1 µM: 2%
NIM1K; read-out: Inhibition at 1 µM (%), NIM1K, 1 µM, ZLYTE, ATP Km app
  inhibition at 1 µM: 3%
PIK3C2G (PI3K-C2 gamma); [1]
  inhibition at 1 µM: -3%
PIK3C2G (PI3K-C2 gamma); PIK3C2G (PI3K-C2 gamma), 1 µM, Adapta, ATP 10, listed as WEL028, 1 µM
  Inhibition at 1 µM (%): -1% and -6%
PRKCQ (PKC theta)
  inhibition at 1 µM: 8%
RET; [1]
  inhibition at 1 µM: 7%
RET; [2]
  inhibition at 1 µM: 6%
RPS6KA5 (MSK1); 1 µM, ZLYTE, ATP Km app
  Inhibition at 1 µM (%): -13%
RPS6KA5 (MSK1); [1]
  inhibition at 1 µM: -7%
SBK1; [3]
  Inhibition at 1 µM (%): 1% and 8%
SBK1; [1]
  inhibition at 1 µM: 5%
SLK; 1 µM, LanthaScreen Binding, listed as WEL028, 1 µM
  Inhibition at 1 µM (%): 1% and 7%
SLK; [1]
  inhibition at 1 µM: 4%
STK4 (MST1); 1 μM WEL028, 1 h preincubation
  Inhibition (%): 3%
STK4 (MST1); 1 µM, ZLYTE, ATP Km app
  Inhibition at 1 µM (%): 11%
SYK; 1 μM WEL028, 1 h preincubation
  Inhibition (%): did not inhibit
SYK; [3]
  Inhibition at 1 µM (%): 1% and 5%
TXK; [1]
  inhibition at 1 µM: 7%
TXK; [2]
  inhibition at 1 µM: 8%
FES^S700C
  Apparent fold selectivity: 232 fold
